Legend:
[1] = test system: human neutrophils; assay: Human neutrophil adhesion to glass slides with or without fibrinogen; assay type: cell-based; details: increasing concentrations, 2.5 hours
Protocol: To ascertain whether the binding of PA-dPEG24 has an effect on the ability of neutrophils to adhere to surfaces in vitro, purified human neutrophils were incubated with increasing concentrations of PA-dPEG24, washed twice with PBS, placed on the glass slides, and then incubated in a humidified 37° C. incubator in the presence of 5% C02 for 2.5 hours. Slides were subsequently stained with DAPI (1:1000 in 2% BSA) followed by imaging at 20× by fluorescence microscopy. Quantification of the amount of cell staining was performed using ImageJ analysis (NIH). […] To ascertain if adherence of neutrophils was altered on glass slides pre-coated with fibrinogen, purified human neutrophils were incubated with increasing concentrations of PA-dPEG24, washed twice with PBS, placed on the fibrinogen-coated glass slides, and then incubated in a humidified 37° C. incubator in the presence of 5% C02 for 2.5 hours. Slides were subsequently stained with DAPI (1:1000 in 2% BSA) followed by imaging at 20× by fluorescence microscopy. Quantification of the amount of cell staining was performed using ImageJ analysis (NIH).

[2] = test system: human neutrophils; assay: Human neutrophil viability, Cell Counting Kit-8; assay type: cell-based; details: cells in PBS or RPMI; compared to buffer alone
Protocol: Cell viability in the presence of increasing amounts of PA-dPEG24 was determined using the Cell Counting Kit-8 (Dojindo). Cell Counting Kit-8 (CCK-8) is a sensitive colorimetric assay for the determination of cell viability in cell proliferation and cytotoxicity assays. The highly water-soluble tetrazolium salt, WST-8, is reduced by dehydrogenase activities in cells to give a yellow-color formazan dye, which is soluble in the tissue culture media. The amount of the formazan dye, generated by the activities of dehydrogenases in cells, is directly proportional to the number of living cells. Neutrophils were isolated from whole blood. Briefly, heparinized whole blood was collected from four different individuals (n=4). The blood was spun on a Hypaque/Ficoll gradient. The pellet was collected, and 3% dextran was added for 20 minutes. The supernatant was collected and washed several times. After a red blood cell lysis, the neutrophils were resuspended in either PBS or RPMI at a concentration of 1.0×10^6 cells/mL. ‘Fresh’ neutrophils were taken at this point and 100 uL (100,000 cells/well) were added to a 96-well plate. 10 uL of CCK-8 (Dojindo Molecular Technologies) was added to each well for 2 hours at 37 C. Absorbance at 450 nm was read to determine viability. […] Absorbance at 450 nm was read to determine viability.

[3] = molecular target: LFA-1 (Homo sapiens, UniProt P05107+P20701); assay: ELISA-type plate binding assay, LFA-1
Protocol: (§1) To address this hypothesis, an ELISA-type binding assay was developed in which neutrophil ligands (LFA-1 and MAC-1/CR3) and […] cell ligands (ICAM-1/CD54 and ICAM-2/CD102) were bound to microtiter plates. Plates were then incubated with increasing amounts of PA-dPEG24 in 1% gelatin/PBS buffer probed with antibody to the peptide and developed.
To ascertain if PA-dPEG24 could bind ICAM-1 and LFA-1 in plasma, these receptors were coated onto microtiter plates and then incubated with human plasma containing increasing amounts of PA-dPEG24, probed with antibody to the peptide and then developed.

[4] = molecular target: ICAM-2/CD102 (Homo sapiens, UniProt P13598); assay: ELISA-type plate binding assay, ICAM-2; details: 1% gelatin/PBS buffer
Protocol: as §1

[5] = test system: human monocytes; assay: C1q-immune complex binding to C1q receptors on human monocytes; assay type: cell-based; details: increasing amounts of peptide
Excerpt: Human monocytes were purified and allowed to adhere to a microtiter plate. […] Absorbance was read at 450 nm. N=3. Bars indicate standard error of the mean (SEM).
Freshly purified human monocytes were allowed to adhere to a 96 well tissue culture plates and nonadherent lymphocytes were removed. […] Unbound immune complexes were washed off and an anti-rabbit HRP antibody was used to detect bound immune complexes, followed by development with TMB and quenching of the reaction with 1N H2SO4 and detection at 450 nm in a plate reader. […] Therefore, without wishing to be bound by theory, this increase has implications for diseases where immune complexes contribute to pathogenesis, including numerous inflammatory ophthalmologic diseases (e.g., uveitis or retinitis), which are situations were increased rapidity of immune complexes can potentially lessen disease severity.

[6] = test system: rat eye; assay: Intravitreal safety study, slit lamp examination with modified MacDonald-Shadduck Ocular Grading; assay type: in vivo; design: key to Conjunctiva pathology score / Anterior Chamber pathology score / Iris pathology score / Cornea pathology score: 0: no pathology; 1: slight pathology; 2: moderate pathology; 3/4: severe pathology; details: for Anterior Chamber pathology score / Conjunctiva pathology score / Cornea pathology score / Iris pathology score: rats 1-4
Protocol: Safety study. […] A saline control was administered to the left eye. For this procedure, animals were anesthetized with isoflurane and also received the topical anesthetic proparacaine. Additionally, animals received the topical antibiotic tobramycin after injection. Slit lamp examinations were performed at the indicated time points up to 72 hours post-injection and pathology graded using a modified MacDonald-Shadduck Ocular Grading system with the following scoring scale: 0, no pathology; 1, slight pathology; 2, moderate pathology; 3/4, severe pathology.

[7] = bolus IV 400 mg/kg; four hours after infusion; male Wistar rats
[8] = test system: VEGF binding to VEGFR-2 (KDR); assay: VEGF Bioassay (Promega), bioluminescent reporter cells; details: increasing peptide concentrations, then human VEGF stimulation
[9] = 30 min after IVT 160 mg/ml in 5 microliters
[10] = 2 hour after IVT 160 mg/ml in 5 microliters
[11] = 24 hour after IVT 160 mg/ml in 5 microliters
[12] = 48 hour after IVT 160 mg/ml in 5 microliters
[13] = 72 hour after IVT 160 mg/ml in 5 microliters
[14] = Pre-IVT (baseline), eye assigned to RLS-0071

LFA-1, sequence (P20701 26-1170): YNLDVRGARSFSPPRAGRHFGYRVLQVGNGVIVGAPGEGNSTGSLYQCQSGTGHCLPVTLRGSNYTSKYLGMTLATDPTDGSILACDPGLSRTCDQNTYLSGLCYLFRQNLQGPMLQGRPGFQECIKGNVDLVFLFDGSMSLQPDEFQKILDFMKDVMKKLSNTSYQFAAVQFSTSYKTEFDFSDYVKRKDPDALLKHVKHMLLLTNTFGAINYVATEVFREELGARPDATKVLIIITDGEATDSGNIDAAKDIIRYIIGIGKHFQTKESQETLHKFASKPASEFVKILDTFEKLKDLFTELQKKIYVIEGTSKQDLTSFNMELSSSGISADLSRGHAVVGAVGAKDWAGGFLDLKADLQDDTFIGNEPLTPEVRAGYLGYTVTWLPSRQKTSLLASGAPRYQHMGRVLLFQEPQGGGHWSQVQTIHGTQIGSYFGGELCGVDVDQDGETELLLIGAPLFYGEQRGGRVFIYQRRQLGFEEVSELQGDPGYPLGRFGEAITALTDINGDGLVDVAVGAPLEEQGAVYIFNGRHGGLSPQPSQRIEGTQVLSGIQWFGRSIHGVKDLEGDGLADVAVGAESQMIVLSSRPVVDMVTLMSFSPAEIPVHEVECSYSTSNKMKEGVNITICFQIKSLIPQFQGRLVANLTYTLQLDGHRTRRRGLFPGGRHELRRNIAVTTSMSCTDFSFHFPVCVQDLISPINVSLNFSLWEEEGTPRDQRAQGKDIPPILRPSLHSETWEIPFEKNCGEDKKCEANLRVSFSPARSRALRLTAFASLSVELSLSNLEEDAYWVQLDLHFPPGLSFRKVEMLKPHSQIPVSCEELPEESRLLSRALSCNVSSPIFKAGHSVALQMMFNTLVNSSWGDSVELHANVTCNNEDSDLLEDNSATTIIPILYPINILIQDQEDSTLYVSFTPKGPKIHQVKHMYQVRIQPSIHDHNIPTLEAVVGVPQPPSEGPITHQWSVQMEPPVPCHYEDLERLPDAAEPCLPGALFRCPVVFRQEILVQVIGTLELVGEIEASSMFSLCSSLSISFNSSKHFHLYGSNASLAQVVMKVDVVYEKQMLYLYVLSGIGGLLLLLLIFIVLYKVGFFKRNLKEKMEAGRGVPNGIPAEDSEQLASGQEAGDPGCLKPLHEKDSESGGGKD
LFA-1, sequence (P05107 23-769): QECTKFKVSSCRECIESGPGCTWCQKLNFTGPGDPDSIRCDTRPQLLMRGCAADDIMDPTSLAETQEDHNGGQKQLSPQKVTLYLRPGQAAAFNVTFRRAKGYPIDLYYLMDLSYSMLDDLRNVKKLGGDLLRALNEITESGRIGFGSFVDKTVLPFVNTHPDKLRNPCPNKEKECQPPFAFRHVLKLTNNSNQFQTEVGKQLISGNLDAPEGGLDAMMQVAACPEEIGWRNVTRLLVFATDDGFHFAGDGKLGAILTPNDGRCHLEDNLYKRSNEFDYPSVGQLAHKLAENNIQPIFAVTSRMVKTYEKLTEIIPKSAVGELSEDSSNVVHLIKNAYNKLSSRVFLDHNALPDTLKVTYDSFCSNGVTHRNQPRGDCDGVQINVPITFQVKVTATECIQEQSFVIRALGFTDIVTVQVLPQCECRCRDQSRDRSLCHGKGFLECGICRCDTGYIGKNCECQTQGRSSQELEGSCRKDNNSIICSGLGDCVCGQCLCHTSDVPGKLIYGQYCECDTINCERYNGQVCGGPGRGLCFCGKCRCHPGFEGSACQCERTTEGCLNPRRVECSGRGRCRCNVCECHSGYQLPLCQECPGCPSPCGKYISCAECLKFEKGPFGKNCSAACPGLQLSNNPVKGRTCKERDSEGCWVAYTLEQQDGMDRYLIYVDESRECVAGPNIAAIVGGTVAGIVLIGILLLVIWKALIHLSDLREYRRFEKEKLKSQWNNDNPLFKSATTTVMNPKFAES
ICAM-2/CD102, sequence (P13598 25-275): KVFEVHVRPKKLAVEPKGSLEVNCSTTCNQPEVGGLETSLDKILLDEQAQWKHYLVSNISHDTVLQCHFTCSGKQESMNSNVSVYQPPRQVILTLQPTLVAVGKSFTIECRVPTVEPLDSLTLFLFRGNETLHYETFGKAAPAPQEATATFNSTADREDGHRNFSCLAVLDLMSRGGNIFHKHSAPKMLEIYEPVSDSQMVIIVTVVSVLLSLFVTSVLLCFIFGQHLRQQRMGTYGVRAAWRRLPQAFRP

## CC[C@H](C)[C@H](N)C(=O)N[C@@H](C)C(=O)N[C@@H](CC(C)C)C(=O)N[C@H](C(=O)N[C@@H](CC(C)C)C(=O)N[C@@H](CCC(=O)O)C(=O)N1CCC[C@H]1C(=O)N[C@H](C(=O)N[C@@H](CS)C(=O)N[C@@H](CS)C(=O)N[C@@H](CCC(N)=O)C(=O)N[C@@H](CCC(=O)O)C(=O)N[C@@H](CCCNC(=N)N)C(=O)N[C@@H](C)C(=O)N[C@@H](C)C(=O)NCCOCCOCCOCCOCCOCCOCCOCCOCCOCCOCCOCCOCCOCCOCCOCCOCCOCCOCCOCCOCCOCCOCCOCCOCCC(=O)O)[C@@H](C)CC)[C@@H](C)CC [RLS-0071]
[1]; fibrinogen-coated glass
  neutrophil adherence to fibrinogen-coated glass slides: dose-dependently decreased neutrophil adherence
[1]; untreated glass
  number of neutrophils adhered to glass slides: dose-dependently reduced the number of cells adhered to the slides
[2]
  neutrophil viability (CCK-8, absorbance 450 nm): dose-dependent increase in viability
[3]; 1% gelatin/PBS buffer
  binding to LFA-1: bound dose-dependently
[3]; in human plasma
  binding to LFA-1: bound dose-dependently
[4]
  binding to ICAM-2: but not ICAM-2
[5]
  amount of C1q detected on monocytes: increased with increasing amounts of PA-dPEG24
  level of C1q-immune complexes bound to monocytes: did not reduce the level of C1q-immune complexes
[6]; 160 mg/kg (maximal deliverable dose) as printed, all 4 animals, up to 72 hours
  ocular toxicity by slit lamp after intravitreal injection: No RLS-0071 related toxicity was observed
[6]; [9]
  Anterior Chamber pathology score: 0
  Conjunctiva pathology score: 0
  Cornea pathology score: 0
  Iris pathology score: 0
[6]; [10]
  Anterior Chamber pathology score: 0
  Conjunctiva pathology score: 0
  Cornea pathology score: 0
  Iris pathology score: 0
[6]; [11]
  Anterior Chamber pathology score: 0
  Conjunctiva pathology score: 0
  Cornea pathology score: 0
  Iris pathology score: 0
[6]; [12]
  Anterior Chamber pathology score: 0
  Conjunctiva pathology score: 0
  Cornea pathology score: 0
  Iris pathology score: 0
[6]; [13]
  Anterior Chamber pathology score: 0
  Conjunctiva pathology score: 0
  Cornea pathology score: 0
  Iris pathology score: 0
[6]; [14]
  Anterior Chamber pathology score: 0
  Conjunctiva pathology score: 0
  Cornea pathology score: 0
  Iris pathology score: 0
[7]
  staining for peptide in kidney tissue: dark staining on the glomerulus and tubules
  staining for peptide in liver tissue: discrete staining
[8]
  inhibition of VEGF binding to VEGFR-2 and intracellular signaling (luminescence): dose-dependent inhibition of intracellular signaling
